Starred links: 1 amine or outer side, 2 acyl side, 3 side chain; linkers in the order of their positions; H or OH if unused. Positions of bridges follow the written chain, without caps; N, C: chain ends. Non-standard residues stand in square brackets, D forms with d. Residues, ends and D or L forms follow the SMILES beside them. Groups on a side chain read outwards from the residue. *: point of attachment. Phe(4-OC2H4NH2,2,3-(CH2)3) = NCCOc1ccc(C[C@H](N)C(=O)O)c2c1CCC2; Trp(7-cPr) = N[C@@H](Cc1c[nH]c2c(C3CC3)cccc12)C(=O)O; Trp(7-Me) = Cc1cccc2c(C[C@H](N)C(=O)O)c[nH]c12; C18 diacid = O=C(O)CCCCCCCCCCCCCCCCC(=O)*; γGlu = O=C(O)[C@H](CCC(=O)[*:2])N[*:1]; 2Nal = N[C@@H](Cc1ccc2ccccc2c1)C(=O)O; TBMB = c1c(C[*:1])cc(C[*:3])cc1C[*:2]; X1 = O=C(C(N[*:1])C1(S[*:3])CC1)[*:2]; X3 = C(c1nc(C[*:2])nc(C[*:3])n1)[*:1]; Thp(SO2) = NC1(C(=O)O)CCS(=O)(=O)CC1; mXylylene = c1cc(C[*:1])cc(C[*:2])c1; oXylylene = c1ccc(C[*:2])c(C[*:1])c1; AEF = NCCOc1ccc(C[C@H](N)C(=O)O)cc1; 3Pal = N[C@@H](Cc1cccnc1)C(=O)O; X5 = COCCOCCOCCOCCOCCOCC(=O)*; Pen = CC(C)(S)[C@H](N)C(=O)O; Thp = NC1(C(=O)O)CCOCC1; Dap = NC[C@H](N)C(=O)O; AEEA = NCCOCCOCC(=O)O; CO = O=C([*:1])[*:2]; Sar = CNCC(=O)O
Target: T1, IL-23α/IL-12β and IL-23R (Homo sapiens, UniProt Q5VWK5)
T1 construct: purchased ACRO ILR-H82F3 (IL-23R); ILB-H52W5 (IL-23α/IL-12β)
T1 sequence (Q5VWK5 24-353 limits assumed): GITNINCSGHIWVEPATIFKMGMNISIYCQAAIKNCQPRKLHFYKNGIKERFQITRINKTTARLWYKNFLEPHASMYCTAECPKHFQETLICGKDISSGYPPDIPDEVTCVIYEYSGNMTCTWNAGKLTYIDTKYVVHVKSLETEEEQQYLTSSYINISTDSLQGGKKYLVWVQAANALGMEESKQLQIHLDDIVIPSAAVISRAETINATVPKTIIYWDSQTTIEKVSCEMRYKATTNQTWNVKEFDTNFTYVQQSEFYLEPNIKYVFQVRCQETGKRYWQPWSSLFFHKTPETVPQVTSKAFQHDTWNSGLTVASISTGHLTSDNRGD
Test: IL-23α/IL-12β and IL-23R binding assay (TR-FRET/HTRF)
Conditions: inhibition of the binding of IL-23α/IL-12β to IL-23R, TR-FRET; both proteins 0.3 nM
Procedure: 1. IL-23α/IL-12β and IL-23R binding assay
Compounds were tested for their inhibition on the binding of IL-23α/IL-12β to IL-23R by the TR-FRET method. Solutions of proteins IL-23α/IL-12β (ACRO, Cat# ILB-H52W5) and IL-23R (ACRO, Cat# ILR-H82F3) were prepared in reaction buffer PPI (PerkinElmer, Cat# 61DB10RDF). The final concentrations of IL-23α/IL-12β and IL-23R in the reaction mixture were both 0.3 nM. Positive reference Guselkumab was 3-fold diluted from an initial concentration of 30 nM, with 10 doses. 0.1 µL of the positive reference diluted in the reaction buffer was delivered to a 384-well plate (Grenier, Cat# 784075) by the acoustic liquid delivery technique (Echo 655), and the plate was centrifuged at 1000 rpm for 1 minute. 2.5 µL of IL-23α/IL-12β solution was transferred into the 384-well reaction plate, and the plate was centrifuged at 1000 rpm for 1 minute, and incubated at 25°C for 60 minutes. 2.5 µL of IL-23R solution was transferred into the 384-well reaction plate, and the plate was centrifuged at 1000 rpm for 1 minute. 5 µL of Streptavidin-Tb cryptate and Anti 6HIS-d2 detection mixture was transferred into the 384-well reaction plate, and the plate was centrifuged at 1000 rpm for 1 minute, and incubated at 25°C for 60 minutes. Finally, the HTRF signal (Ratio 665/620 nm) was read with a BMG high-throughput drug screening multifunctional microplate reader. IC50 values were obtained by nonlinear regression curve fitting using GraphPad Prism software.

| Compound | IC50 |
| --- | --- |
| CC(=O)NCCCC[C@@H]1NC(=O)[C@H](Cc2c[nH]c3c(C)cccc23)NC(=O)[C@H]([C@@H](C)O)NC(=O)[C@H](CC(N)=O)NC(=O)C(NC(C)=O)CCCC[C@@H](C(=O)N[C@@H](Cc2ccc(OCCN)cc2)C(=O)N[C@@H](Cc2ccc3ccccc3c2)C(=O)NC2(C(=O)N[C@@H](CCC(=O)O)C(=O)N[C@@H](CC(N)=O)C(=O)N[C@@H](Cc3cccnc3)C(=O)N(C)CC(N)=O)CCOCC2)NC1=O (single isomer, unassigned) [Compound 44-1] | 0.145 nM |
| CC(=O)NCCCC[C@@H]1NC(=O)[C@H](Cc2c[nH]c3c(C)cccc23)NC(=O)[C@H]([C@@H](C)O)NC(=O)[C@H](CC(N)=O)NC(=O)C(NC(C)=O)CCCC[C@@H](C(=O)N[C@@H](Cc2ccc(OCCN)cc2)C(=O)N[C@@H](Cc2ccc3ccccc3c2)C(=O)NC2(C(=O)N[C@@H](CCC(=O)O)C(=O)N[C@@H](CC(N)=O)C(=O)N[C@@H](Cc3cccnc3)C(=O)N(C)CC(N)=O)CCOCC2)NC1=O (single isomer, unassigned) [Compound 44-2] | 0.134 nM |
| CC(=O)N[C@H]1CSCc2cc3cc(c2)CSC[C@@H](C(=O)N[C@@H](CC(N)=O)C(=O)N[C@@H](Cc2cccnc2)C(=O)N(C)CC(N)=O)NC(=O)C2(CCS(=O)(=O)CC2)NC(=O)[C@H](Cc2ccc4ccccc4c2)NC(=O)[C@H](Cc2ccc(OCCN)c4c2CCC4)NC(=O)[C@H](CSC3)NC(=O)[C@H](CCC(N)=O)NC(=O)[C@H](Cc2c[nH]c3c(C)cccc23)NC(=O)[C@H]([C@@H](C)O)NC(=O)[C@H](Cc2c[nH]cn2)NC1=O [Compound 19] (Ac-CHT[Trp(7-Me)]QC[Phe(4-OC2H4NH2,2,3-(CH2)3)][2Nal][Thp(SO2)]CN[3Pal][Sar]-NH2; linker 1-6-10 via TBMB) | 0.248 nM |
| C[C@@H](O)[C@@H]1NC(=O)[C@H](Cc2c[nH]cn2)NC(=O)[C@@H](NC(=O)COCCOCCNC(=O)COCCOCCNC(=O)CC[C@H](NC(=O)CCCCCCCCCCCCCCCCC(=O)O)C(=O)O)C(C)(C)SSC(C)(C)[C@@H](C(=O)N[C@@H](Cc2ccc(OCCN)c3c2CCC3)C(=O)N[C@@H](Cc2ccc3ccccc3c2)C(=O)NC2(C(=O)N[C@@H](CCC(=O)O)C(=O)N[C@@H](CC(N)=O)C(=O)N[C@@H](Cc3cccnc3)C(=O)N(C)CC(N)=O)CCS(=O)(=O)CC2)NC(=O)[C@H](CCC(N)=O)NC(=O)[C@H](Cc2c[nH]c3c(C4CC4)cccc23)NC1=O [Compound 20] ({C18 diacid-γGlu-AEEA-AEEA}-[Pen]HT[Trp(7-cPr)]Q[Pen][Phe(4-OC2H4NH2,2,3-(CH2)3)][2Nal][Thp(SO2)]EN[3Pal][Sar]-NH2; disulfide 1-6) | 0.116 nM |
| CC(=O)N[C@@H]1C(=O)N[C@@H](Cc2c[nH]cn2)C(=O)N[C@@H]([C@@H](C)O)C(=O)N[C@@H](Cc2c[nH]c3c(C4CC4)cccc23)C(=O)N[C@@H](CCCCNC(=O)COCCOCCNC(=O)COCCOCCNC(=O)CC[C@H](NC(=O)CCCCCCCCCCCCCCCCC(=O)O)C(=O)O)C(=O)N[C@H](C(=O)N[C@@H](Cc2ccc(OCCN)c3c2CCC3)C(=O)N[C@@H](Cc2ccc3ccccc3c2)C(=O)NC2(C(=O)N[C@@H](CCC(=O)O)C(=O)N[C@@H](CC(N)=O)C(=O)N[C@@H](Cc3cccnc3)C(=O)N(C)CC(N)=O)CCS(=O)(=O)CC2)C(C)(C)SSC1(C)C [Compound 21] (Ac-[Pen]HT[Trp(7-cPr)]K([AEEA-AEEA-γGlu-C18 diacid])[Pen][Phe(4-OC2H4NH2,2,3-(CH2)3)][2Nal][Thp(SO2)]EN[3Pal][Sar]-NH2; disulfide 1-6) | 0.248 nM |
| CC(=O)N[C@H]1CNC(=O)NC[C@@H](C(=O)N[C@@H](Cc2ccc(OCCN)cc2)C(=O)N[C@@H](Cc2ccc3ccccc3c2)C(=O)NC2(C(=O)N[C@@H](CCC(=O)O)C(=O)N[C@@H](CC(N)=O)C(=O)N[C@@H](Cc3cccnc3)C(=O)N(C)CC(N)=O)CCOCC2)NC(=O)[C@H](CCC(N)=O)NC(=O)[C@H](Cc2c[nH]c3c(C)cccc23)NC(=O)[C@H]([C@@H](C)O)NC(=O)[C@H](Cc2c[nH]cn2)NC1=O [Compound 23] (Ac-[Dap]HT[Trp(7-Me)]Q[Dap][AEF][2Nal][Thp]EN[3Pal][Sar]-NH2; linker 1-6 via CO) | 0.161 nM |
| CC(=O)N[C@H]1CSCc2cccc(c2)CSC[C@@H](C(=O)N[C@@H](Cc2ccc(OCCN)c3c2CCC3)C(=O)N[C@@H](Cc2ccc3ccccc3c2)C(=O)NC2(C(=O)N[C@@H](CCC(=O)O)C(=O)N[C@@H](CC(N)=O)C(=O)N[C@@H](Cc3cccnc3)C(=O)N(C)CC(N)=O)CCS(=O)(=O)CC2)NC(=O)[C@H](CCC(N)=O)NC(=O)[C@H](Cc2c[nH]c3c(C)cccc23)NC(=O)[C@H]([C@@H](C)O)NC(=O)[C@H](Cc2c[nH]cn2)NC1=O [Compound 30] (Ac-CHT[Trp(7-Me)]QC[Phe(4-OC2H4NH2,2,3-(CH2)3)][2Nal][Thp(SO2)]EN[3Pal][Sar]-NH2; linker 1-6 via mXylylene) | 0.46 nM |
| CC(=O)N[C@H]1CSCc2ccccc2CSC[C@@H](C(=O)N[C@@H](Cc2ccc(OCCN)c3c2CCC3)C(=O)N[C@@H](Cc2ccc3ccccc3c2)C(=O)NC2(C(=O)N[C@@H](CCC(=O)O)C(=O)N[C@@H](CC(N)=O)C(=O)N[C@@H](Cc3cccnc3)C(=O)N(C)CC(N)=O)CCS(=O)(=O)CC2)NC(=O)[C@H](CCC(N)=O)NC(=O)[C@H](Cc2c[nH]c3c(C)cccc23)NC(=O)[C@H]([C@@H](C)O)NC(=O)[C@H](Cc2c[nH]cn2)NC1=O [Compound 31] (Ac-CHT[Trp(7-Me)]QC[Phe(4-OC2H4NH2,2,3-(CH2)3)][2Nal][Thp(SO2)]EN[3Pal][Sar]-NH2; linker 1-6 via oXylylene) | 0.258 nM |
| CC(=O)N[C@H]1CSCc2nc3nc(n2)CSC[C@@H](C(=O)N[C@@H](CC(N)=O)C(=O)N[C@@H](Cc2cccnc2)C(=O)N(C)CC(N)=O)NC(=O)C2(CCS(=O)(=O)CC2)NC(=O)[C@H](Cc2ccc4ccccc4c2)NC(=O)[C@H](Cc2ccc(OCCN)c4c2CCC4)NC(=O)[C@H](CSC3)NC(=O)[C@H](CCC(N)=O)NC(=O)[C@H](Cc2c[nH]c3c(C)cccc23)NC(=O)[C@H]([C@@H](C)O)NC(=O)[C@H](Cc2c[nH]cn2)NC1=O [Compound 33] (Ac-CHT[Trp(7-Me)]QC[Phe(4-OC2H4NH2,2,3-(CH2)3)][2Nal][Thp(SO2)]CN[3Pal][Sar]-NH2; linker 1-6-10 via X3) | 0.395 nM |
| COCCOCCOCCOCCOCCOCC(=O)N[C@@H]1C(=O)N[C@@H](Cc2c[nH]cn2)C(=O)N[C@@H]([C@@H](C)O)C(=O)N[C@@H](Cc2c[nH]c3c(C4CC4)cccc23)C(=O)N[C@@H](CCC(N)=O)C(=O)N[C@H](C(=O)N[C@@H](Cc2ccc(OCCN)c3c2CCC3)C(=O)N[C@@H](Cc2ccc3ccccc3c2)C(=O)NC2(C(=O)N[C@@H](CCC(=O)O)C(=O)N[C@@H](CC(N)=O)C(=O)N[C@@H](Cc3cccnc3)C(=O)N(C)CC(N)=O)CCS(=O)(=O)CC2)C(C)(C)SSC1(C)C [Compound 35] (X5-[Pen]HT[Trp(7-cPr)]Q[Pen][Phe(4-OC2H4NH2,2,3-(CH2)3)][2Nal][Thp(SO2)]EN[3Pal][Sar]-NH2; disulfide 1-6) | 0.063 nM |
| CC(=O)N[C@@H](CCC(=O)NCCOCCOCC(=O)NCCOCCOCC(=O)N[C@@H]1C(=O)N[C@@H](Cc2c[nH]cn2)C(=O)N[C@@H]([C@@H](C)O)C(=O)N[C@@H](Cc2c[nH]c3c(C4CC4)cccc23)C(=O)N[C@@H](CCC(N)=O)C(=O)N[C@H](C(=O)N[C@@H](Cc2ccc(OCCN)c3c2CCC3)C(=O)N[C@@H](Cc2ccc3ccccc3c2)C(=O)NC2(C(=O)N[C@@H](CCC(=O)O)C(=O)N[C@@H](CC(N)=O)C(=O)N[C@@H](Cc3cccnc3)C(=O)N(C)CC(N)=O)CCS(=O)(=O)CC2)C(C)(C)SSC1(C)C)C(=O)O [Compound 36] (Ac-[γGlu][AEEA][AEEA][Pen]HT[Trp(7-cPr)]Q[Pen][Phe(4-OC2H4NH2,2,3-(CH2)3)][2Nal][Thp(SO2)]EN[3Pal][Sar]-NH2; disulfide 4-9) | 0.042 nM |
| CC(=O)NCCCC[C@@H]1NC(=O)[C@H](Cc2c[nH]c3c(C)cccc23)NC(=O)[C@H]([C@@H](C)O)NC(=O)[C@H](CC(N)=O)NC(=O)C(NC(C)=O)C2(CC2)SSC(C)(C)[C@@H](C(=O)N[C@@H](Cc2ccc(OCCN)cc2)C(=O)N[C@@H](Cc2ccc3ccccc3c2)C(=O)NC2(C(=O)N[C@@H](CCC(=O)O)C(=O)N[C@@H](CC(N)=O)C(=O)N[C@@H](Cc3cccnc3)C(=O)N(C)CC(N)=O)CCOCC2)NC1=O (stereo partly drawn) [Compound 37] (Ac-[X1]NT[Trp(7-Me)]K(Ac)[Pen][AEF][2Nal][Thp]EN[3Pal][Sar]-NH2; disulfide 1-6 (inferred)) | 0.05 nM |

— patent EP4729529A1, “PREPARATION OF PEPTIDE INHIBITOR OF INTERLEUKIN-23 RECEPTOR AND USE THEREOF” (Xizang Haisco Pharmaceutical Co., Ltd., priority 2023, dated 2024)
